In patent US20150141336A1, “Pancreatic Peptide Compounds and Use” (Novo Nordisk A/S, priority 2012, published 2015):
Numbered stars: 1 amine (or outer) side, 2 acyl side, 3 side chain; on linkers, the order of the positions; unused ones are H or OH. Side chains are listed from the residue outwards. Peptide text beside a SMILES is read from it. * marks the point of attachment. C18 diacid = O=C(O)CCCCCCCCCCCCCCCCC(=O)*; γGlu = O=C(O)[C@H](CCC(=O)[*:2])N[*:1]; AEEA = NCCOCCOCC(=O)O

Assay: Assay (II) PK i.v. minipig, in vivo half-life
Parameters: species or system Göttingen mini-pigs
Settings: male, Göttingen, minipig, iv, Half-life minipig, Assay (II)
Protocol: An assay useful for measuring the pharmacokinetic (PK) profile of the PP peptide is the following mini-pig PK assay.
Five male Göttingen mini-pigs weighing approximately 18 to 22 kg from Ellegaard Göttingen Minipigs NS, Denmark are included in the study. The mini-pigs have two central venous catheters inserted which are used for intra venous (i.v.) dosing and blood sampling. The test compound is dissolved in 50 mM K2HPO4, 0.05% tween 80, pH=8.0 to a concentration of 180 nmol/ml. For comparison a control compound, such as human PP(1-36), may be administered. The pigs are dosed with 6 nmol test compound/kg body weight. Blood samples are taken at the following time points: pre-dose, 30 minutes, 1, 2, 4, 8, 24, 48, 72, 96, 120, 168 and 240 hours post dosing. The blood samples were collected into test tubes containing EDTA buffer for stabilization and kept on ice for max. 20 minutes before centrifugation. The centrifugation procedure to separate plasma may be: 4° C., approx. 2500 g for 10 minutes. Plasma is collected and immediately transferred to Micronic tubes stored at −20° C. until assayed.
The test compounds were assayed in plasma by Turbulent Flow Chromatography coupled to Liquid Chromatography with subsequent Tandem Mass Spectrometric Detection (TFC/LC/MS/MS). Positive mode ionization and Multiple Reaction Monitoring (MRM) of a multiple protonated species fragmented to a singly charged ion was employed for selectivity. The selectivity of the method allows multiple compounds to be quantified in one sample.
The concentrations of the test compound in samples of unknown concentration were calculated using the peak area as a function of amount. Calibration graphs based on plasma samples spiked with the analyte were constructed by regression analysis. Typical dynamic range for standard assay was 1-2000 nmol/I. The method performance was assured by co-assaying quality control (QC) samples in duplicate at three concentration levels.
Stock and working solutions of analytes were prepared in plasma and incubated by 37° C. for 1 hour.
Sample Preparation: 40.0 μl EDTA-plasma was added 160 μl 50% methanol, 1% formic acid, then vortexed and centrifuged at 16457 g at 4° C. for 20 minutes. The supernatant was transferred to a 96 well plate, plates incubated with 0.4% BSA, 37° C. for ½ hour. Injection volume was 25 μl.
The analysis was carried out on a Sciex API 3000 mass spectrometer (MDS/Sciex, Concord, ON, Canada) using a TurbolonSpray interface. The TFC/LC system consisted of two Flux Rheos 2000 quaternary pumps, a Cohesive VIM module (Cohesive Technologies, Franklin, Mass., USA) and a CTC LC/PAL auto sampler (CTC Analytics, Zingen, Switzerland). The centrifuge employed was a HettichMikro 22R (A. Hettich, Tuttlingen, Germany). For sample clean up a TurboFlow C8 column (0.5×50 mm) (Cohesive Technologies/Thermofisher) was used and the LC separation was done on a Proteo 4 μm column (2.0×50 mm) (Phenomenex, Torrance, Calif., USA). Eluents were isocratic and gradient combinations of methanol, acetonitril, Milli-Q water and formic acid.
Non-compartmental analysis (NCA): Plasma concentration-time profiles are analyzed by non-compartmental pharmacokinetics analysis (NCA) using WinNonlin Professional 5.0 (Pharsight Inc., Mountain View, Calif., USA). NCA is performed using the individual plasma concentration-time profiles from each animal.

| SMILES | half-life [h] |
| --- | --- |
| CC[C@H](C)[C@H](NC(=O)[C@H](Cc1ccc(O)cc1)NC(=O)[C@H](CCCNC(=N)N)NC(=O)[C@H](CCCNC(=N)N)NC(=O)[C@H](CC(C)C)NC(=O)[C@H](CC(=O)O)NC(=O)[C@H](C)NC(=O)[C@H](C)NC(=O)[C@H](Cc1ccc(O)cc1)NC(=O)[C@H](CCC(N)=O)NC(=O)[C@H](C)NC(=O)[C@H](CCSC)NC(=O)[C@H](CCC(N)=O)NC(=O)[C@H](CCC(=O)O)NC(=O)[C@H](CCCCNC(=O)COCCOCCNC(=O)COCCOCCNC(=O)CC[C@H](NC(=O)CCCCCCCCCCCCCCCCC(=O)O)C(=O)O)NC(=O)[C@@H](NC(=O)[C@H](C)NC(=O)[C@H](CC(N)=O)NC(=O)[C@H](CC(=O)O)NC(=O)CNC(=O)[C@@H]1CCCN1C(=O)[C@H](Cc1ccc(O)cc1)NC(=O)[C@@H](NC(=O)[C@@H]1CCCN1C(=O)[C@H](CCC(=O)O)NC(=O)[C@@H](N)CC(C)C)C(C)C)[C@@H](C)O)C(=O)N[C@@H](CC(N)=O)C(=O)N[C@@H](CCSC)C(=O)N[C@@H](CC(C)C)C(=O)N[C@H](C(=O)N[C@@H](CCCNC(=N)N)C(=O)N1CCC[C@H]1C(=O)N[C@@H](CCCNC(=N)N)C(=O)N[C@@H](Cc1ccc(O)cc1)C(N)=O)[C@@H](C)O [Compound BB] (H-LEPVYPGDNATK([AEEA-AEEA-γGlu-C18 diacid])EQMAQYAADLRRYINMLTRPRY-NH2; N-terminus and C-terminus assumed) | 19 |
| CC[C@H](C)[C@H](NC(=O)[C@H](Cc1ccc(O)cc1)NC(=O)[C@H](CCCCNC(=O)COCCOCCNC(=O)COCCOCCNC(=O)CC[C@H](NC(=O)CCCCCCCCCCCCCCCCC(=O)O)C(=O)O)NC(=O)[C@H](CCCNC(=N)N)NC(=O)[C@H](CC(C)C)NC(=O)[C@H](CC(=O)O)NC(=O)[C@H](C)NC(=O)[C@H](C)NC(=O)[C@H](Cc1ccc(O)cc1)NC(=O)[C@H](CCC(N)=O)NC(=O)[C@H](C)NC(=O)[C@H](CCSC)NC(=O)[C@H](CCC(N)=O)NC(=O)[C@H](CCC(=O)O)NC(=O)[C@@H]1CCCN1C(=O)[C@@H](NC(=O)[C@H](C)NC(=O)[C@H](CC(N)=O)NC(=O)[C@H](CC(=O)O)NC(=O)CNC(=O)[C@@H]1CCCN1C(=O)[C@H](Cc1ccc(O)cc1)NC(=O)[C@@H](NC(=O)[C@@H]1CCCN1C(=O)[C@H](CCC(=O)O)NC(=O)[C@H](CC(C)C)NC(=O)[C@@H]1CCCN1)C(C)C)[C@@H](C)O)C(=O)N[C@@H](CC(N)=O)C(=O)N[C@@H](CCSC)C(=O)N[C@@H](CC(C)C)C(=O)N[C@H](C(=O)N[C@@H](CCCNC(=N)N)C(=O)N1CCC[C@H]1C(=O)N[C@@H](CCCNC(=N)N)C(=O)N[C@@H](Cc1ccc(O)cc1)C(N)=O)[C@@H](C)O [Compound H] | 62 |
| CC[C@H](C)[C@H](NC(=O)[C@H](Cc1ccc(O)cc1)NC(=O)[C@H](CCCNC(=N)N)NC(=O)[C@H](CCCNC(=N)N)NC(=O)[C@H](CC(C)C)NC(=O)[C@H](CC(=O)O)NC(=O)[C@H](C)NC(=O)[C@H](C)NC(=O)[C@H](Cc1ccc(O)cc1)NC(=O)[C@H](CCC(N)=O)NC(=O)[C@H](C)NC(=O)[C@H](CCSC)NC(=O)[C@H](CCC(N)=O)NC(=O)[C@H](CCC(=O)O)NC(=O)[C@@H]1CCCN1C(=O)[C@@H](NC(=O)[C@H](C)NC(=O)[C@H](CC(N)=O)NC(=O)[C@H](CC(=O)O)NC(=O)CNC(=O)[C@@H]1CCCN1C(=O)[C@H](Cc1ccc(O)cc1)NC(=O)[C@@H](NC(=O)[C@@H]1CCCN1C(=O)[C@H](CCC(=O)O)NC(=O)[C@@H](N)CC(C)C)C(C)C)[C@@H](C)O)C(=O)N[C@@H](CC(N)=O)C(=O)N[C@@H](CCCCNC(=O)COCCOCCNC(=O)COCCOCCNC(=O)CC[C@H](NC(=O)CCCCCCCCCCCCCCCCC(=O)O)C(=O)O)C(=O)N[C@@H](CC(C)C)C(=O)N[C@H](C(=O)N[C@@H](CCCNC(=N)N)C(=O)N1CCC[C@H]1C(=O)N[C@@H](CCCNC(=N)N)C(=O)N[C@@H](Cc1ccc(O)cc1)C(N)=O)[C@@H](C)O [Compound AL] (H-LEPVYPGDNATPEQMAQYAADLRRYINK([AEEA-AEEA-γGlu-C18 diacid])LTRPRY-NH2; N-terminus and C-terminus assumed) | 59 |
| CC[C@H](C)[C@H](NC(=O)[C@H](Cc1ccc(O)cc1)NC(=O)[C@H](CCCNC(=N)N)NC(=O)[C@H](CCCNC(=N)N)NC(=O)[C@H](CC(C)C)NC(=O)[C@H](CC(=O)O)NC(=O)[C@H](C)NC(=O)[C@H](C)NC(=O)[C@H](Cc1ccc(O)cc1)NC(=O)[C@H](CCC(N)=O)NC(=O)[C@H](C)NC(=O)[C@H](CCSC)NC(=O)[C@H](CCC(N)=O)NC(=O)[C@H](CCCCNC(=O)COCCOCCNC(=O)COCCOCCNC(=O)CC[C@H](NC(=O)CCCCCCCCCCCCCCCCC(=O)O)C(=O)O)NC(=O)[C@@H]1CCCN1C(=O)[C@@H](NC(=O)[C@H](C)NC(=O)[C@H](CC(N)=O)NC(=O)[C@H](CC(=O)O)NC(=O)CNC(=O)[C@@H]1CCCN1C(=O)[C@H](Cc1ccc(O)cc1)NC(=O)[C@@H](NC(=O)[C@@H]1CCCN1C(=O)[C@H](CCC(=O)O)NC(=O)[C@H](CC(C)C)NC(=O)[C@@H]1CCCN1)C(C)C)[C@@H](C)O)C(=O)N[C@@H](CC(N)=O)C(=O)N[C@@H](CCSC)C(=O)N[C@@H](CC(C)C)C(=O)N[C@H](C(=O)N[C@@H](CCCNC(=N)N)C(=O)N1CCC[C@H]1C(=O)N[C@@H](CCCNC(=N)N)C(=O)N[C@@H](Cc1ccc(O)cc1)C(N)=O)[C@@H](C)O [Compound S] (H-PLEPVYPGDNATPK([AEEA-AEEA-γGlu-C18 diacid])QMAQYAADLRRYINMLTRPRY-NH2; N-terminus and C-terminus assumed) | 35 |
| CC[C@H](C)[C@H](NC(=O)[C@H](Cc1ccc(O)cc1)NC(=O)[C@H](CCCNC(=N)N)NC(=O)[C@H](CCCNC(=N)N)NC(=O)[C@H](CC(C)C)NC(=O)[C@H](CC(=O)O)NC(=O)[C@H](C)NC(=O)[C@H](C)NC(=O)[C@H](Cc1ccc(O)cc1)NC(=O)[C@H](CCC(N)=O)NC(=O)[C@H](C)NC(=O)[C@H](CCSC)NC(=O)[C@H](CCC(N)=O)NC(=O)[C@H](CCC(=O)O)NC(=O)[C@@H]1CCCN1C(=O)[C@@H](NC(=O)[C@H](C)NC(=O)[C@H](CC(N)=O)NC(=O)[C@H](CC(=O)O)NC(=O)CNC(=O)[C@@H]1CCCN1C(=O)[C@H](Cc1ccc(O)cc1)NC(=O)[C@@H](NC(=O)[C@@H]1CCCN1C(=O)[C@H](CCC(=O)O)NC(=O)[C@H](CC(C)C)NC(=O)[C@@H]1CCCN1)C(C)C)[C@@H](C)O)C(=O)N[C@@H](CCCCNC(=O)COCCOCCNC(=O)COCCOCCNC(=O)CC[C@H](NC(=O)CCCCCCCCCCCCCCCCC(=O)O)C(=O)O)C(=O)N[C@@H](CCSC)C(=O)N[C@@H](CC(C)C)C(=O)N[C@H](C(=O)N[C@@H](CCCNC(=N)N)C(=O)N1CCC[C@H]1C(=O)N[C@@H](CCCNC(=N)N)C(=O)N[C@@H](Cc1ccc(O)cc1)C(N)=O)[C@@H](C)O [Compound E] (H-PLEPVYPGDNATPEQMAQYAADLRRYIK([AEEA-AEEA-γGlu-C18 diacid])MLTRPRY-NH2; N-terminus and C-terminus assumed) | 110 |
| CC[C@H](C)[C@H](NC(=O)[C@H](Cc1ccc(O)cc1)NC(=O)[C@H](CCCNC(=N)N)NC(=O)[C@H](CCCNC(=N)N)NC(=O)[C@H](CC(C)C)NC(=O)[C@H](CC(=O)O)NC(=O)[C@H](C)NC(=O)[C@H](C)NC(=O)[C@H](Cc1ccc(O)cc1)NC(=O)[C@H](CCC(N)=O)NC(=O)[C@H](C)NC(=O)[C@H](CCSC)NC(=O)[C@H](CCC(N)=O)NC(=O)[C@H](CCC(=O)O)NC(=O)[C@@H]1CCCN1C(=O)[C@@H](NC(=O)[C@H](C)NC(=O)[C@H](CC(N)=O)NC(=O)[C@H](CC(=O)O)NC(=O)CNC(=O)[C@@H]1CCCN1C(=O)[C@H](Cc1ccc(O)cc1)NC(=O)[C@@H](NC(=O)[C@H](CCCCNC(=O)COCCOCCNC(=O)COCCOCCNC(=O)CC[C@H](NC(=O)CCCCCCCCCCCCCCCCC(=O)O)C(=O)O)NC(=O)[C@H](CCC(=O)O)NC(=O)[C@H](CC(C)C)NC(=O)[C@@H]1CCCN1)C(C)C)[C@@H](C)O)C(=O)N[C@@H](CC(N)=O)C(=O)N[C@@H](CCSC)C(=O)N[C@@H](CC(C)C)C(=O)N[C@H](C(=O)N[C@@H](CCCNC(=N)N)C(=O)N1CCC[C@H]1C(=O)N[C@@H](CCCNC(=N)N)C(=O)N[C@@H](Cc1ccc(O)cc1)C(N)=O)[C@@H](C)O [Compound AC] | 11 |
